{"source": "patent US20240301409A1", "about": "“Chemically Modified Small Activating RNA” (RACTIGEN THERAPEUTICS, priority 2021, published 2024)", "key": {"[1]": {"system": "p21 gene", "assay": "p21 mRNA expression by RT-qPCR in Ku-7-LG cells", "type": "cell-based, human", "conditions": "10 nM", "experimental": "(§1) Ku-7-LG and T24 cells were transfected with the indicated saRNA at a final concentration of 10 nM for 3 days. After transfection, the RNA was extracted with the Qiagen RNeasy kit. After reverse transcription, the ABI 7500 fast real-time PCR system was used for qPCR amplification. The GAPDH gene was amplified as an internal reference. […] Dashed line indicates duplex Rag1-40 with no chemical modification in comparison, and the values above the line indicate stronger activity. The control was blank transfection without oligonucleotide. dsCon2 is transfected with a double-stranded scramble RNA. The value of the ordinate represents the mean±SD of 2 repeated treatments.\n(§2) The control and dsCon2 were blank transfection and scramble dsRNA transfection, respectively. The values in the ordinate represent the mean±SD of 2 repeated treatments.\n(§3) Human bladder cancer cells Ku-7-LG (ATCC), J82 (ATCC) and T24 (ATCC) were cultured in McCoy medium (Gibco) comprising 10% calf serum (Sigma-Aldrich) and 1% penicillin/Streptomycin (Gibco). Cells were cultured at 37° C. under 5% CO2. Ku-7-LG, J82 and T24 cells were plated into 12-well plates at 10×10^4 cells per well, transfected with the small RNA at a concentration of 10 nM (unless otherwise specified) for three days, using RNAiMax (Invitrogen, Carlsbad, CA) according to the manufacturer's instructions. Two replicate wells were set for each treatment.\n(§4) After transfection, the medium was discarded and to each well 500 μl cell lysate was added and incubated at room temperature for 5 minutes. RNA was extracted with the Qiagen RNeasy kit, and after reverse transcription, qPCR analysis was performed on the ABI 7500 Fast Real-time PCR system (Applied Biosystems). Each sample was amplified in 3 replicate wells.\n(§5) The PCR reaction conditions are: 95° C. for 30 seconds, 95° C. for 5 seconds, 60° C. for 30 seconds, and 40 cycles of amplification. The GAPDH gene was amplified as an internal reference at the same time. p21 was amplified with the p21F1/R1 primer pair, and the specific sequences of the amplification primers are shown in Table 1.\n(§6) In order to calculate the expression value (Erel) of p21 (target gene) of a saRNA transfection sample relative to the control treatment, Formula 1 is used to input the Ct values of the target gene and the internal reference gene for calculation.\n(§7) wherein, CtTm is the Ct value of the target gene from the control treatment sample; CtTs is the Ct value of the target gene from the saRNA treated sample; CtRm is the Ct value of the internal reference gene from the control treatment sample; and CtRs is the Ct value of the internal reference gene from the saRNA treated sample.\n(§8) The main purpose of introducing chemical modifications to regulatory oligonucleotides of a gene is to improve their pharmaceutical properties, including enhancing in vivo stability and mitigating off-target effects (e.g., sequence-dependent targeting of unrelated genes, sequence-dependent or independent immune stimulation), while maintaining their gene regulatory capacity (gene knockdown or activation). To assess the effect of chemical modification on the RNAa activity of saRNA on the p21 gene, 10 nM unmodified (Rag1-40) and modified (Rag1-40-1 to Rag1-40-34) duplexes were transfected into Ku-7-LG and T24 cells, respectively. After 72 hours, the mRNA expression level of p21 was assessed by RT-qPCR. All duplexes induced p21 mRNA expression in all […] at least double that of the control.\n(§9) In order to further evaluate the expression level of p21 mRNA after the different durations of treatment by the chemically modified saRNA duplexes, two saRNAs (RAG1-40-31 and RAG1-40-53) were randomly selected from the above chemically modified saRNA duplexes for detection. RAG1-40-31 and RAG1-40-53 were transfected into Ku-7-LG and T24 cells at a final concentration of 10 nM, for 1, 2, 3, 4, 7 and 9 days, respectively. Each treatment was set up in duplicate. […]"}, "[2]": {"system": "p21 gene", "assay": "p21 mRNA expression by RT-qPCR in T24 cells", "type": "cell-based, human", "conditions": "10 nM", "experimental": "as §1, §2, §3, §4, §5, §6, §7, §8, §9"}, "[3]": {"system": "Ku-7-LG cells", "assay": "Cell cycle detection by flow cytometry in Ku-7-LG cells", "type": "cell-based, human", "conditions": "48 hours", "experimental": "RAG1-40-31 and RAG1-40-53 were transfected into Ku-7-LG cells at the final concentrations of 0.1, 1, 10 and 50 nM, and the transfection duration was 48 hours. Two replicate wells were used for each treatment. After transfection, the cell cycle was analyzed by flow cytometry, and the collected data were analyzed by MotFit software.\nAfter transfection, the supernatant was discarded to collect cells. To each well 500 μL PBS was added for one wash and then discarded. To each well 100 μL trypsin was further added. 900 μL medium was added to stop digestion before transferring to a 1.5 mL centrifuge tube. All the cells were collected through centrifugation (400 rcf, 5 min) and counted (2×10^5 cells/200 μL PBS). Cold 70% absolute ethanol was added before incubation overnight at 4° C. After washing twice with PBS, 200 μL Krishan buffer was added before incubation at 4° C. for 1 hour. After washing twice with PBS, the supernatant was discarded and 200 μL PBS was added for cell re-suspension, then the cells were transferred to a 96-well plate and analyzed by flow cytometer. The collected data were analyzed with MotFit software.\nIn order to study the mechanism of cellular proliferation suppression, change in cell cycle was analyzed using flow cytometry in this example. Randomly selected saRNAs RAG1-40-31 and RAG1-40-53 were transfected into Ku-7-LG cells at final concentrations of 0.1, 1, 10 and 50 nM, respectively, for 48 hours. Each treatment was set in duplicate. Cell cycle was detected and analyzed as described in the general protocol above."}, "[4]": {"biological_target": "T1, RNase A (Bos taurus, UniProt P61823)", "T1 sequence (P61823 27-150)": "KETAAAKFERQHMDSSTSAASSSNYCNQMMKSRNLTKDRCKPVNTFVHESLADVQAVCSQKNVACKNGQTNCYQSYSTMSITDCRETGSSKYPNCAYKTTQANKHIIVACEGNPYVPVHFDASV", "assay": "saRNA stability analysis in the presence of RNase A (agarose gel)", "conditions": "incubation 0 to 96 hours", "protocol": "The duplexes obtained at each time point above were each added to 1 μL of 10× loading buffer, and then frozen in liquid nitrogen. After incubation, all samples were detected for the double-stranded RNA by 4% agarose gel electrophoresis, and the content of each duplex was analyzed by Image J software.\nThe duplexes obtained at each time point indicated above were each added to 1 μL of 10× loading buffer, and then frozen in liquid nitrogen. After incubation, all samples were detected for the double-stranded RNA by 4% agarose gel electrophoresis, and the content of each duplex was analyzed by Image J software.\nsaRNA (1.5 μL, 10 μM) was incubated at a final concentration of 0.02 mg/mL in PBS in the presence of RNase A (Amresco, OH, USA) at 37° C. for different durations. At the end of the incubation, the mixture was snap frozen in liquid nitrogen to stop nuclease activity. Samples were analyzed on a 4% agarose gel and examined for duplex degradation.\nAll chemically modified duplexes (Rag1-40-1 to Rag1-40-32) were incubated with 0.02 μg/L of RNase A for different durations (0 to 96 hours). At the end of the incubation, the size and amount of duplexes were detected by agarose gel electrophoresis."}, "[5]": {"system": "Rag1-40 target sequence in the 3′ UTR of firefly luciferase, COS-1 cells", "assay": "Analysis of off-target effects (pOff-Target dual luciferase reporter in COS-1 cells)", "conditions": "lysed 48 hours after transfection, luciferase activity"}}, "note": "Oligonucleotides are written 5' to 3', each unit as a sugar letter and its base; * is a phosphorothioate linkage, no mark a phosphodiester; rarer units and linkages stand in square brackets, end groups in braces. Plain capitals give the bases only. m = 2'-O-methyl; r = 2'-OH (RNA); f = 2'-fluoro"}
{"substance": "RAG1-40-53: saRNA duplex: sense mCmCAACfUCAfUfUCfUCCAAG*mU*mC (SEQ ID NO 24); antisense fUAfCfUfUGGAGAAfUGAGfUfUGG*fC*fA (SEQ ID NO 25) (sense CCAACUCAUUCUCCAAGUC; antisense UACUUGGAGAAUGAGUUGGCA; 2'-F, 2'-OMe, phosphorothioate modifications; modified_base (1)..(19) (1,2,18,19)=2′-O-methyl(2′-OMe); modified_base (6)..(12) (6,9,10,12)=2′-fluoro; modified_base (17)..(19) (17,18,19)=phosphorothioate (PS) backbone modification; modified_base (1)..(21) (1,3,4,5,12,16,17,20,21)=2′-fluoro; modified_base (20)..(21) (20,21)=phosphorothioate (PS) backbone modification)", "values": [{"measurement": "increase of expression level of p21 mRNA compared with the control group", "setting": "[1]; 1 day", "value": 1.4, "unit": "fold"}, {"measurement": "increase of expression level of p21 mRNA compared with the control group", "setting": "[1]; 2 days", "value": 13.0, "unit": "fold"}, {"measurement": "increase of expression level of p21 mRNA compared with the control group", "setting": "[1]; 3 days", "value": 9.1, "unit": "fold"}, {"measurement": "increase of expression level of p21 mRNA compared with the control group", "setting": "[1]; 4 days", "value": 4.5, "unit": "fold"}, {"measurement": "increase of expression level of p21 mRNA compared with the control group", "setting": "[1]; 7 days", "value": 3.2, "unit": "fold"}, {"measurement": "increase of expression level of p21 mRNA compared with the control group", "setting": "[1]; 9 days", "value": 4.1, "unit": "fold"}, {"measurement": "increase of expression level of p21 mRNA compared with the control group", "setting": "[2]; 1 day", "value": 2.2, "unit": "fold"}, {"measurement": "increase of expression level of p21 mRNA compared with the control group", "setting": "[2]; 2 days", "value": 3.5, "unit": "fold"}, {"measurement": "increase of expression level of p21 mRNA compared with the control group", "setting": "[2]; 3 days", "value": 7.8, "unit": "fold"}, {"measurement": "increase of expression level of p21 mRNA compared with the control group", "setting": "[2]; 4 days", "value": 4.5, "unit": "fold"}, {"measurement": "increase of expression level of p21 mRNA compared with the control group", "setting": "[2]; 7 days", "value": 1.2, "unit": "fold"}, {"measurement": "increase of expression level of p21 mRNA compared with the control group", "setting": "[2]; 9 days", "value": 1.1, "unit": "fold"}, {"measurement": "percentage of cells in DNA anaphase/mitosis (G2/M)", "setting": "[3]; 0.1 nM", "value": 7, "unit": "%"}, {"measurement": "percentage of cells in DNA replication phase (S phase)", "setting": "[3]; 0.1 nM", "value": 36, "unit": "%"}, {"measurement": "percentage of cells in prophase of DNA synthesis (G0/G1)", "setting": "[3]; 0.1 nM", "value": 57, "unit": "%"}, {"measurement": "percentage of cells in DNA anaphase/mitosis (G2/M)", "setting": "[3]; 1 nM", "value": 10, "unit": "%"}, {"measurement": "percentage of cells in DNA replication phase (S phase)", "setting": "[3]; 1 nM", "value": 24, "unit": "%"}, {"measurement": "percentage of cells in prophase of DNA synthesis (G0/G1)", "setting": "[3]; 1 nM", "value": 66, "unit": "%"}, {"measurement": "percentage of cells in DNA anaphase/mitosis (G2/M)", "setting": "[3]; 10 nM", "value": 9, "unit": "%"}, {"measurement": "percentage of cells in DNA replication phase (S phase)", "setting": "[3]; 10 nM", "value": 12, "unit": "%"}, {"measurement": "percentage of cells in prophase of DNA synthesis (G0/G1)", "setting": "[3]; 10 nM", "value": 79, "unit": "%"}, {"measurement": "percentage of cells in DNA anaphase/mitosis (G2/M)", "setting": "[3]; 50 nM", "value": 8, "unit": "%"}, {"measurement": "percentage of cells in DNA replication phase (S phase)", "setting": "[3]; 50 nM", "value": 16, "unit": "%"}, {"measurement": "percentage of cells in prophase of DNA synthesis (G0/G1)", "setting": "[3]; 50 nM", "value": 76, "unit": "%"}]}
{"substance": "Rag1-40-1: saRNA duplex: sense mCmCAACUCAUUCUCCAAGmUmC (SEQ ID NO 5); antisense fUAfCfUfUGGAGAAfUGAGfUfUGGfCA (SEQ ID NO 6) (sense CCAACUCAUUCUCCAAGUC; antisense UACUUGGAGAAUGAGUUGGCA; 2'-OMe and 2'-F modifications; modified_base (1)..(19) (1,2,18,19)=2′-O-methyl(2′-OMe); modified_base (1)..(20) (1,3,4,5,12,16,17,20)=2′-fluoro)", "values": [{"measurement": "degradation of duplex at 96 hours", "setting": "[4]", "value": "little or no signs of degradation"}, {"measurement": "off-target effect compared to unmodified Rag1-40, in words", "setting": "[5]", "value": "completely inhibited"}]}
{"substance": "Rag1-40-14: saRNA duplex: sense fCfCAACUCAUUCUCCAAGfUfC (SEQ ID NO 14); antisense fU*A*fCfUfUGGAGAAfUGAGfUfUGG*fC*A (SEQ ID NO 11) (sense CCAACUCAUUCUCCAAGUC; antisense UACUUGGAGAAUGAGUUGGCA; 2'-F modifications, phosphorothioates; modified_base (1)..(19) (1,2,18,19)=2′-fluoro; modified_base (1)..(21) (1,2,3,19,20,21)=phosphorothioate (PS) backbone modification; modified_base (1)..(20) (1,3,4,5,12,16,17,20)=2′-fluoro)", "values": [{"measurement": "degradation of duplex at 96 hours", "setting": "[4]", "value": "little or no signs of degradation"}, {"measurement": "off-target effect compared to unmodified Rag1-40, in words", "setting": "[5]", "value": "mitigated or similar off-target effects"}]}
{"substance": "Rag1-40-19: saRNA duplex: sense mCmCAACUCAUUCUCCAAG*U*C (SEQ ID NO 15); antisense fUmAfCfUfUmGmGmAmGmAmAfUmGmAmGfUfUmGmGfCmA (SEQ ID NO 8) (sense mCmCrArArCrUrCrArUrUrCrUrCrCrArArG*rU*rC)", "values": [{"measurement": "degradation of duplex at 96 hours", "setting": "[4]", "value": "little or no signs of degradation"}, {"measurement": "off-target effect compared to unmodified Rag1-40, in words", "setting": "[5]", "value": "mitigated or similar off-target effects"}]}
